Reference: US12677825B2, “Composition for protecting islet transplantation” (LG CHEM, LTD., priority 2020, dated 2026)

System: islets from hIAPP+/− FVB/N mice
Experiment: Serum-deprived culture of mouse islets (viability, ROS)
Assay type: cell-based
Conditions: dose-dependent 0.1 μM to 20 μM
Experimental: Purified hIAPP^+/− FVB/N and C57BL/6J mouse were suspended in RPMI 1640 (Gibco, Grand Island, NY, USA) containing 100 IU/mL penicillin and 100 μg/mL streptomycin, and cultured at 37° C. in a fully humidified 5% CO2 atmosphere. Purified NHP islets were suspended in CMRL 1066 medium (Coming Life Sciences, Tewksbury, MA; catalog number 99-663-CV) containing 100 IU/mL penicillin and 100 μg/mL streptomycin, and cultured at 37° C. in a fully humidified 5% CO2 atmosphere. […]
The viability of islets was evaluated using Alamar blue staining according to the manufacturer's protocol (Invitrogen, Grand Island, NY, USA). […] The fluorescence intensity of each well was measured at 570/585 nm (excitation/emission) using a GloMax-Multi Plus Detection System (Promega, Fitchburg, WI, USA), and the values were normalized to a blank.
The oxidative stress levels in hIAPP^+/− mouse islets were determined right after islet isolation and after ex vivo culture of isolated islets. The oxidative stress of the islets was quantified using a fluorescence-based intracellular ROS detection method and by estimating the concentration of malondialdehyde (MDA), a by-product of lipid peroxidation. The formation of total ROS, superoxide ion and nitric oxide was determined using a reactive oxygen species detection kit (ENZ-51011, Enzo Life Sciences, Farmingdale, New York, USA). […]

In the case of `O=S1(=O)CCN(Cc2cc(NC3CCOCC3)c3[nH]c(-c4ccccc4)cc3c2)CC1` [Compound 1], the relative cell viability (FIG. 4D) is reported as “significantly increased” and the “serum deprivation-induced ROS” value (FIG. 4F) is reported as “decreased”.
